The term pIC50 denotes −log10 of the IC50, conventionally taken in molar units.

Experimental findings from patent US9102701B2, “17-hydroxy-17-pentafluoroethyl-estra-4,9(10)-diene-11-ethynylphenyl derivatives, methods for the production thereof and use thereof for treating diseases” (Bayer Intellectual Property GmbH, priority 2009, dated 2015) are described below.

Assay [1] addresses T1, human progesterone receptor A (Homo sapiens, UniProt P06401).
T1 construct: expressed in transfected cells; host or cells: SK-N-MC human neuroblastoma cells, stably transfected with pRChPR-A-neo and pMMTV-LUC
T1 sequence (P06401 1-769 isoform P06401-2): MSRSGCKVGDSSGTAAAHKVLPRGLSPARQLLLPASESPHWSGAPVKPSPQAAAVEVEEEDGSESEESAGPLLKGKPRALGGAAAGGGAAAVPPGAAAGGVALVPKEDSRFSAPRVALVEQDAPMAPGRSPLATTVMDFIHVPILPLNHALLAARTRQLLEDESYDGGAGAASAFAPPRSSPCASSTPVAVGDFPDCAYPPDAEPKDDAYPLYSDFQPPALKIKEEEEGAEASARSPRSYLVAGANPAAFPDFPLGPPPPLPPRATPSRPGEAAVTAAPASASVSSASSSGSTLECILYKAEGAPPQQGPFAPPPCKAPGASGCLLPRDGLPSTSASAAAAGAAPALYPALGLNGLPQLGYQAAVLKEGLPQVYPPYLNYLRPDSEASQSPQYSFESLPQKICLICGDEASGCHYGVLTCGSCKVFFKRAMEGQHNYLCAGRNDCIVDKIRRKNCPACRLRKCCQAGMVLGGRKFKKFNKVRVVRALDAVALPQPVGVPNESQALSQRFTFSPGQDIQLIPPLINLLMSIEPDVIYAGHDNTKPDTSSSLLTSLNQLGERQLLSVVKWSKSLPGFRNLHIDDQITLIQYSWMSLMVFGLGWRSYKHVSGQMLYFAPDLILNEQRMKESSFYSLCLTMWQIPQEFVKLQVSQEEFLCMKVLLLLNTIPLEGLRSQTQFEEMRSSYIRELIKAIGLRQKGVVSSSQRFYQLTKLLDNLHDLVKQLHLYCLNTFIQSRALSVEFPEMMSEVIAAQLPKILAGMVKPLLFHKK
Nature of the assay: Progesterone receptor-antagonistic action in stably transfected SK-N-MC cells, PR-A, MMTV-LUC reporter. The assay is classed as cell-based. To be noted: read-out: IC50 PR-A. As to the method: (§1) Determination of Progesterone Receptor-Antagonistic Action in Stable Transfectants of Human Neuroblastoma Cells (SK-N-MC Cells) with the Human Progesterone a or Progesterone B Receptor and an MN-LUC Reporter Construct
(§2) SK-N-MC cells (human neuroblastoma cells) which have been stably transfected with plasmids expressing the human progesterone receptor B (pRChPR-B-neo) or the human progesterone receptor A (pRChPR-A-neo) and a reporter construct (pMMTV-LUC) were incubated for 24 hours either in the absence (negative control) or in the presence of ascending amounts of the particular test compound (0.01 nmol/l, 0.1 nmol/l, 1 nmol/l, 10 nmol/l, 100 nmol/l and […]), in order to determine the agonistic efficacy. As a positive control of the reporter gene induction, the cells were treated with the synthetic gestagen promegestone (0.01 nmol/l, 0.1 nmol/l, 1 nmol/l, 10 nmol/l, 100 nmol/l and […]). To determine the antagonistic activity, the cells were treated with 0.1 nmol/l promegestone and additionally with ascending amounts of the particular test compound (0.01 nmol/l, 0.1 nmol/l, 1 nmol/l, 10 nmol/l, 100 nmol/l and […]). The activity of the reporter gene LUC (LUC=luciferase) was determined in the cell lysates and measured as RLU (relative light units). All measurements are reported as % efficacy and as EC50 and IC50 concentrations.

The target in assay [2] is T2, human progesterone receptor B (Homo sapiens, UniProt P06401).
T2 construct: expressed in transfected cells; host or cells: SK-N-MC human neuroblastoma cells, stably transfected with pRChPR-B-neo and pMMTV-LUC
T2 sequence (P06401 1-933): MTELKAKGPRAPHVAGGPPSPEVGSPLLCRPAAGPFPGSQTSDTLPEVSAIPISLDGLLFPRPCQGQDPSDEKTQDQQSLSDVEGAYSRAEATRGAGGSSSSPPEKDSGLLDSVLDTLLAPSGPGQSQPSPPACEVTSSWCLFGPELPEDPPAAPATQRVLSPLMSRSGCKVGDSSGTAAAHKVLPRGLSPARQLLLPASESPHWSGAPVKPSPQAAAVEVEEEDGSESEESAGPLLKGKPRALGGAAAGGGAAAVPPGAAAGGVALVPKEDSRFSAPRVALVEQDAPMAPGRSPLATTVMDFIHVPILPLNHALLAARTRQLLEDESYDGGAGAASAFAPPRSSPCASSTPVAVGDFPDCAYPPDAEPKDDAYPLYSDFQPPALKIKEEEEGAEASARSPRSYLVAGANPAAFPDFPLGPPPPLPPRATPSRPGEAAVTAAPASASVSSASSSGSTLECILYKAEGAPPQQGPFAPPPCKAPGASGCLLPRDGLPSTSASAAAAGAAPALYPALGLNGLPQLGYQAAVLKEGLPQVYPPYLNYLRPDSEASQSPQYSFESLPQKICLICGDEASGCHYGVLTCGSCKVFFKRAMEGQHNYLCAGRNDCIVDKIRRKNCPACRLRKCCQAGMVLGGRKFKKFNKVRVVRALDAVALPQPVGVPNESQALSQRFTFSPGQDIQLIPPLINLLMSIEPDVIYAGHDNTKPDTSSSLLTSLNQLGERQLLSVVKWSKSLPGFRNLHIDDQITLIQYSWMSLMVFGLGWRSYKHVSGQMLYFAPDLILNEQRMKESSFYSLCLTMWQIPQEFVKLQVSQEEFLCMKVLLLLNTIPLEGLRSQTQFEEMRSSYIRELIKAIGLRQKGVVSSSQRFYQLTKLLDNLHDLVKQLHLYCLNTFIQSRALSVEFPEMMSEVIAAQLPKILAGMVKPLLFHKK
Briefly: Progesterone receptor-antagonistic action in stably transfected SK-N-MC cells, PR-B, MMTV-LUC reporter. Particulars: read-out: IC50 PR-B. The assay is classed as cell-based. As to the method: as §1, §2

pIC50: −log10 of the molar value. Read-outs that look alike come from different tables or passages of the source.

For `C[C@]12C[C@H](c3ccc(C#CCOC(=O)Nc4ccc(Cl)cc4)cc3)C3=C4CCC(=O)C=C4CCC3C1CC[C@@]2(O)C(F)(F)C(F)(F)F` (stereo partly drawn) [Example 55, 4-chlorophenylcarbamic acid 3-[4-((8S,11R,13S,14S,17S)-17-hydroxy-13-methyl-3-oxo-17-pentafluoroethyl-2,3,6,7,8,11,12,13,14,15,16,17-dodecahydro-1H-cyclopenta[a]phenanthren-1′-yl)phenyl]prop-2-ynyl ester], the pIC50 in assay [1] is 9.59; in assay [2] it was 9.70.

Take `COc1ccc(NC(=O)OCC#Cc2ccc([C@H]3C[C@@]4(C)C(CC[C@@]4(O)C(F)(F)C(F)(F)F)C4CCC5=CC(=O)CCC5=C43)cc2)cc1` (stereo partly drawn) [Example 52, 4-methoxyphenylcarbamic acid 3-[4-((8S,11R,13S,14S,17S)-17-hydroxy-13-methyl-3-oxo-17-pentafluoroethyl-2,3,6,7,8,11,12,13,14,15,16,17-dodecahydro-1H-cyclopenta[a]phenanthren-1′-yl)phenyl]prop-2-ynyl ester]: the pIC50 in assay [1] is 11.00; in assay [2] it was 10.15.

As to `C[C@]12C[C@H](c3ccc(C#CCN=[N+]=[N-])cc3)C3=C4CCC(=O)C=C4CC[C@H]3[C@@H]1CC[C@@]2(O)C(F)(F)C(F)(F)F` [Example 23, (8S,11R,13S,14S,17S)-11-[4-(3-azidoprop-1-yn-1-yl)phenyl]-17-hydroxy-13-methyl-17-pentafluoroethyl-1,2,6,7,8,11,12,13,14,15,16,17-dodecahydrocyclopenta[a]phenanthren-3-one], the pIC50 in assay [1] is 9.70; in assay [2], 9.52.

Turning to `C[C@]12C[C@H](c3ccc(C#Cc4ccc(S(C)(=O)=O)cc4)cc3)C3=C4CCC(=O)C=C4CC[C@H]3[C@@H]1CC[C@@]2(O)C(F)(F)C(F)(F)F` [Example 56, (8S,11R,13S,14S,17S)-17-hydroxy-11-[4-(4-methanesulphonylphenylethynyl)phenyl]-13-methyl-17-pentafluoroethyl-1,2,6,7,8,11,12,13,14,15,16,17-dodecahydrocyclopenta[a]phenanthren-3-one], the pIC50 is 11.00 in assay [1] (antagonistic potency vs 0.1 nmol/l promegestone, SK-N-MC cells, 24 hours) and 10.10 in assay [2].

With `CC(C)CO/N=C/C#Cc1ccc([C@H]2C[C@@]3(C)C(CC[C@@]3(O)C(F)(F)C(F)(F)F)C3CCC4=CC(=O)CCC4=C32)cc1` (mixture of isomers) [Example 26, (E/Z)-[4-((8S,11R,13S,14S,17S)-17-hydroxy-13-methyl-3-oxo-17-pentafluoroethyl-2,3,6,7,8,11,12,13,14,15,16,17-dodecahydro-1H-cyclopenta[a]phenanthren-1′-yl)phenyl]propynal O-isobutyl oxime], the pIC50 in assay [1] and in assay [2] was 10.10 each time.

Consider `C[C@]12C[C@H](c3ccc(C#CCNC(=O)Nc4ccc(Cl)cc4)cc3)C3=C4CCC(=O)C=C4CC[C@H]3[C@@H]1CC[C@@]2(O)C(F)(F)C(F)(F)F` [Example 35, 1-{3-[4-((8S,11R,13S,14S,17S)-17-hydroxy-13-methyl-3-oxo-17-pentafluoroethyl-2,3,6,7,8,11,12,13,14,15,16,17-dodecahydro-1H-cyclopenta[a]phenanthren-11-yl)phenyl]prop-2-ynyl}-3-(4-chlorophenyl)urea], for which the pIC50 in assay [1] and in assay [2] was 9.40 each time.

Take `CCOC(=O)CNC(=O)NCC#Cc1ccc([C@H]2C[C@@]3(C)C(CC[C@@]3(O)C(F)(F)C(F)(F)F)C3CCC4=CC(=O)CCC4=C32)cc1` (stereo partly drawn) [Example 42, (3-{3-[4-((8S,11R,13S,14S,17S)-17-hydroxy-13-methyl-3-oxo-17-pentafluoroethyl-2,3,6,7,8,11,12,13,14,15,16,17-dodecahydro-1H-cyclopenta[a]phenanthren-1′-yl)phenyl]prop-2-ynyl}ureido)acetic acid ethyl ester]: the pIC50 in assay [1] was 9.15; in assay [2] it was 9.10.

Consider `CCO/N=C\C#Cc1ccc([C@H]2C[C@@]3(C)C(CC[C@@]3(O)C(F)(F)C(F)(F)F)C3CCC4=CC(=O)CCC4=C32)cc1` (stereo partly drawn) [Example 25B, (Z)-[4-((8S,11R,13S,14S,17S)-17-hydroxy-13-methyl-3-oxo-17-pentafluoroethyl-2,3,6,7,8,11,12,13,14,15,16,17-dodecahydro-1H-cyclopenta[a]phenanthren-1′-yl)phenyl]propynal O-ethyl oxime], for which the pIC50 in assay [1] and in assay [2] was 10.05 each time.

On to `CC(C)(O)C#Cc1ccc([C@H]2C[C@@]3(C)[C@@H](CC[C@@]3(O)C(F)(F)C(F)(F)F)[C@@H]3CCC4=CC(=O)CCC4=C32)cc1` [Example 21, (8S,11R,13S,14S,17S)-17-hydroxy-11-[4-(3-hydroxy-3-methylbut-1-ynyl)phenyl]-13-methyl-17-pentafluoroethyl-1,2,6,7,8,11,12,13,14,15,16,17-dodecahydrocyclopenta[a]phenanthren-3-one], for which the pIC50 in assay [1] was 9.44; in assay [2] it was 9.00.

On to `COC(=O)c1ccc(C#Cc2ccc([C@H]3C[C@@]4(C)[C@@H](CC[C@@]4(O)C(F)(F)C(F)(F)F)[C@@H]4CCC5=CC(=O)CCC5=C43)cc2)cc1` [Example 15, 4-[4-((8S,11R,13S,14S,17S)-17-hydroxy-13-methyl-3-oxo-17-pentafluoroethyl-2,3,6,7,8,11,12,13,14,15,16,17-dodecahydro-1H-cyclopenta[a]phenanthren-11-yl)phenylethynyl]benzoic acid methyl ester], for which the pIC50 is 9.15 in assay [1] and 9.00 in assay [2].

Take `C[C@]12C[C@H](c3ccc(C#CCOC(=O)Nc4ccc(N5CCCCC5)cc4)cc3)C3=C4CCC(=O)C=C4CCC3C1CC[C@@]2(O)C(F)(F)C(F)(F)F` (stereo partly drawn) [Example 54, (4-piperidin-1-ylphenyl)carbamic acid 3-[4-((8S,11R,13S,14S,17S)-17-hydroxy-13-methyl-3-oxo-17-pentafluoroethyl-2,3,6,7,8,11,12,13,14,15,16,17-dodecahydro-1H-cyclopenta[a]phenanthren-1′-yl)phenyl]prop-2-ynyl ester]: the pIC50 in assay [1] was 10.00; in assay [2], 10.05.
